{"source": "patent US20240197756A1", "about": "“METHODS OF TREATMENT WITH NEUROACTIVE STEROIDS” (priority 2021, published 2024)", "key": {"[1]": {"test": "Food Effect Cohort (Cohort 4), plasma pharmacokinetics fasted vs high-fat meal", "format": "in vivo, human", "quoted_text": "A Food Effect Cohort (Cohort 4) was conducted to assess the effect of food on the PK profile of a single dose of Compound 1 when administered to healthy subjects. The subjects of Cohort 4 were treated with 30 mg of Compound 1 QD.\nCohort 4 subjects received a single 30 mg dose of a Compound 1 suspension on Days 1 and 5. The Day 1 dose was administered after a minimum of 10 hour fasting. No additional fluid intake was allowed until 1 hour after drug administration. A standard meal was given at least 4 hours post-dose. The Day 5 dose was administered following a high-fat, high calorie meal. Participants remained at the clinical site for a total of 8 days to complete pharmacokinetic sampling after the second dose.\nPlasma samples were analyzed to determine Compound 1 concentrations using a validated assay method. Pharmacokinetic variables (including but not limited to Cmax, Tmax and AUC(0-last)) were calculated using non-compartmental analysis. PK parameters for Compound 1 were derived from the plasma concentration data using non-compartmental analysis with Phoenix™ WinNonlin® v 8.0 (Pharsight Corporation, USA).\nBlood (Cohort 4): Serial blood samples were collected relative to the dosing of Compound 1 at the following time points on both Day 1 and Day 5: Pre-dose (0 hours), 0.25, 0.50, 0.75, 1.00, 1.50, 2.00, 2.50, 3.00, 4.00, 6.00, 8.00, 12.00, 16.00, 24.00, 36.00, 48.00 and 72.00 hours post-dose (±2 min)."}, "[2]": {"test": "Example 3 Part C: tablet single ascending doses, morning fasted vs 8 p.m., plasma pharmacokinetics", "format": "in vivo, human", "details": "for half-life: Mean (SD); for AUC(0-inf): AUCinf", "protocol": "Patients with severe major depressive disorder (MDD) aged 18 to 65 years were treated with an oral suspension or tablet of Compound 1 to study the effect of food and time of administration on the pharmacokinetics, as well as the safety and tolerability of these formulations.\nPart C is a randomized, participant- and Investigator-blinded, Sponsor-unblinded, placebo-controlled, parallel-group design to evaluate the pharmacokinetics and safety of single ascending doses of a Compound 1 citrate tablet. One cohort of 16 participants was planned, with 12 participants receiving Compound 1 and 4 participants receiving placebo. Part C also evaluated administration of a single dose level at 8 p.m., both 2 hours and 4 hours after dinner.\nPreliminary pharmacokinetics data from Part A, where 45 mg and 60 mg of oral suspension were administered (Cohort 1), and Part C, where 40 mg (2×20 mg), 60 mg (3×20 mg) and 80 mg (4×20 mg) of the tablet formulation were administered, have been analyzed and are summarized below.\nA tablet comprising Compound 1 was administered as single ascending doses of 40 mg, 60 mg and 80 mg under fasted conditions in the morning (FIG. 5). The 60 mg dosage was administered on two additional occasions at 8 p.m., once 4 hours after dinner and once 2 hours after dinner (FIG. 6)."}, "[3]": {"test_system": "extrasynaptic form of GABAA receptors", "test": "PAM selectivity for extrasynaptic vs synaptic GABAA receptors"}, "harmaline-induced tremor": {"test_system": "harmaline-induced tremor", "test": "Rat Harmaline Induced Tremor (rHIT) model", "format": "in vivo", "details": "0.3, 1, 3, 10 mg/kg i.p., 30 min before harmaline 30 mg/kg i.p. (FIG. 9)", "source_text": "A rat model of tremor (Rat Harmaline Induced Tremor; rHIT) was used to assess the impact of Compound 1 on reducing the symptoms of tremor. Male SD rats (SLAC, Shanghai, China) having a body weight of about 250 g at the time of testing were fed ad libitum and kept in a 12:12 light-dark cycle room, with the lights on from 5 a.m. to 5 p.m, throughout the study. Rats were allowed to acclimate to standard laboratory conditions for at least 5-7 days prior to the experiment.\nOne day prior to testing, a naive rat was placed in the testing chamber, which was a plexiglass chamber with a piezoelectric plate attached at the bottom to transduce tremor behavior into an electrical signal. The rat was placed in the chamber in order to adjust the spontaneous activity baseline signal. […]\nNext, at T=0 minutes, all groups were intraperitoneally administered 30 mg/kg (5 mL/kg) of harmaline formulated in a saline vehicle. The post-harmaline effect was measured for twenty minutes (T=10 to 30 minutes). […]\nPiezoelectric plate signal analysis: For the power spectral density analysis, electrical tremor signal was processed with fast Fourier transform (FFT) at a resolution of 0.5 Hz bins. […] The average maximum power density across the 8-13 Hz band in 0.5 Hz bins was also calculated. […]"}, "[4]": {"details": "30 mg single dose, Fasted (Day 1), n = 10, Mean"}, "[5]": {"details": "30 mg single dose, Fed (high-fat, high calorie meal), n = 10, Mean"}}, "note": "Entries after “also recorded” stand apart in the source; their conditions may differ.", "data": [{"molecule": "COC[C@@]1(O)CC[C@@]2(C)[C@@H](CC[C@@H]3[C@@H]2CC[C@]2(C)[C@@H](C(=O)Cn4ccnc4)CC[C@@H]32)C1", "note": "[Compound 1, 3α-Hydroxy-3β-methoxymethyl-21-(1′-imidazolyl)-5α-pregnan-20-one]", "values": [{"measurement": "t1/2 fasted vs fed conditions", "setting": "[1]; 30 mg dose", "value": "similar"}, {"measurement": "AUC increase in the fed state versus the fasted state", "setting": "[1]; 30 mg dose group", "value": 1.17, "unit": "fold"}, {"measurement": "AUC0-t Fed/Fasted Ratio", "setting": "[1]; 30 mg dose, high-fat meal", "value": 1.17}, {"measurement": "Cmax Fed/Fasted Ratio", "setting": "[1]; 30 mg dose, high-fat meal", "value": 0.64}, {"measurement": "AUC0-last", "setting": "[1]; [4]", "value": 597.7, "unit": "ng·h/mL"}, {"measurement": "AUC %Extrap", "setting": "[1]; [4]", "value": 0.8702, "unit": "%"}, {"measurement": "AUCinf", "setting": "[1]; [4]", "value": 602.3, "unit": "ng·h/mL"}, {"measurement": "Cmax", "setting": "[1]; [4]", "value": 84.18, "unit": "ng/mL"}, {"measurement": "AUC0-last", "setting": "[1]; [5]", "value": 629.9, "unit": "ng·h/mL"}, {"measurement": "AUC %Extrap", "setting": "[1]; [5]", "value": 0.6632, "unit": "%"}, {"measurement": "AUCinf", "setting": "[1]; [5]", "value": 634.2, "unit": "ng·h/mL"}, {"measurement": "Cmax", "setting": "[1]; [5]", "value": 45.36, "unit": "ng/mL"}, {"measurement": "Tmax", "setting": "[1]; 30 mg single dose, Fed (high-fat, high calorie meal), n = 10, Median", "value": 3.25, "unit": "h"}, {"measurement": "Cmax decrease under fed conditions", "setting": "[1]; human, in vivo, 30 mg", "value": 0.64, "unit": "fold"}, {"measurement": "half-life", "setting": "[1]; human, in vivo, 30 mg single dose, Fasted (Day 1), n = 10, Mean", "value": 11.2, "unit": "h"}, {"measurement": "Tmax", "setting": "[2]; human, in vivo, 40 mg", "value": 1.5, "unit": "h"}, {"measurement": "half-life", "setting": "[2]; human, in vivo, 40 mg, 9 a.m. administration (fasted), N = 13", "value": 11.9, "unit": "h"}, {"measurement": "AUC(0-inf)", "setting": "[2]; human, in vivo, 40 mg", "value": 1390, "unit": "ng·h/mL"}, {"measurement": "Cmax", "setting": "[2]; human, in vivo, 40 mg", "value": 181, "unit": "ng/mL"}, {"measurement": "Tmax", "setting": "[2]; human, in vivo, 60 mg", "value": 2.5, "unit": "h"}, {"measurement": "tmax", "setting": "[2]; human, in vivo, 60 mg", "value": "2.5 (1.0, 3.0) h"}, {"measurement": "half-life", "setting": "[2]; human, in vivo, 60 mg, 8 p.m. administration (60 mg), 2 h after dinner, N = 12", "value": 9.6, "unit": "h"}, {"measurement": "half-life", "setting": "[2]; human, in vivo, 60 mg, 8 p.m. administration (60 mg), 4 h after dinner, N = 11", "value": 11.4, "unit": "h"}, {"measurement": "half-life", "setting": "[2]; human, in vivo, 60 mg, 9 a.m. administration (fasted), N = 12", "value": 11.5, "unit": "h"}, {"measurement": "AUC(0-inf)", "setting": "[2]; human, in vivo, 60 mg", "value": 2610, "unit": "ng·h/mL"}, {"measurement": "Cmax", "setting": "[2]; human, in vivo, 60 mg", "value": 408, "unit": "ng/mL"}, {"measurement": "half-life", "setting": "[2]; human, in vivo, 80 mg, 9 a.m. administration (fasted), N = 12", "value": 11.4, "unit": "h"}, {"measurement": "AUC(0-inf)", "setting": "[2]; human, in vivo, 80 mg", "value": 3980, "unit": "ng·h/mL"}, {"measurement": "Cmax", "setting": "[2]; human, in vivo, 80 mg", "value": 546, "unit": "ng/mL"}, {"measurement": "dose proportionality of exposure", "setting": "[2]; tablet, fasted, between 60 mg and 80 mg", "value": "closer to dose-proportional"}, {"measurement": "increase in exposure over a 2-fold increase in dose", "setting": "[2]; tablet, fasted, from 40 mg to 80 mg", "value": "~3", "unit": "fold"}, {"measurement": "selectivity as PAM of the extrasynaptic form of GABAA receptors compared to the synaptic form", "setting": "[3]", "value": "approximately 10 fold"}, {"measurement": "inhibition of harmaline-induced tremor", "setting": "harmaline-induced tremor", "value": "dose-dependently inhibits; also recorded: dose dependent inhibition"}]}]}
